Measurements taken from patent publication US20160074374A1, “CORRECTORS ACTING THROUGH MSD1 OF CFTR PROTEIN” (VERTEX PHARMACEUTICALS INCORPORATED, priority 2013, published 2016).
“Also recorded” adds a separate entry of the source.

How the values were obtained:
[1] = molecular target: ΔF508-CFTR (Homo sapiens, UniProt P13569, DEL508-508); parameters: primary cultures of human bronchial epithelial cells isolated from subjects with CF; host or cells: primary human bronchial epithelial cells (Van Goor 2011); CF patients in a 28-day study (Clancy 2012); details: bronchial epithelial cells from CF subjects; cited from earlier work
[2] = molecular target: T1, mutant CFTR (Homo sapiens, UniProt P13569, E92K); assay: Ussing chamber forskolin-stimulated chloride transport in Fisher Rat Thyroid cells expressing CFTR mutants; type: cell-based; details: Corr4a 15 μM
T1 construct: expressed in transfected cells
Method: Ussing chamber techniques with Fisher Rat Thyroid cells that are stably transfected with the indicated form of CFTR are used to record the transepithelial current (IT) resulting from CFTR-mediated chloride transport (Van Goor, et al., 2009, PNAS, 106: 18825-30). Standard conditions for Ussing chamber electrophysiological with different forms of CFTR measured forskolin (10 μM)-stimulated chloride transport that peaked at 205.5 μA/cm2 for normal CFTR.

[3] = molecular target: V232D-CFTR (Homo sapiens, UniProt P13569, V232D); details: cited from earlier work
[4] = molecular target: T2, N-terminal CFTR fragments (Homo sapiens, UniProt P13569); assay: Steady-state accumulation of CFTR fragments, western blot, HEK293 cells; type: cell-based; details: bortezomib 10 μM
T2 construct: Indicated CFTR fragments were generated via introduction of a stop codon after the specified residue; expressed in transfected cells; host or cells: HEK293, transient, pcDNA3.1(+)-CFTR derivatives
Method: Steady-state levels of CFTR and its mutants are determined by western blot analysis. HEK293 cells are transiently transfected with the indicated plasmids (Grove, et al., 2011, Mol Biol Cell, 22: 301-14). The transfected cells are allowed to recover for approximately 18 hrs before addition of DMEM and then supplemented with lumacaftor or DMSO (control). The cells are incubated with the correctors for 24 hrs before isolating the cells for western blot analysis. The harvested cells are diluted with 2×SDS sample buffer (100 mM Tris-HCl (pH 6.8)/4% SDS/0.05% Bromophenol Blue/20% glycerol), sonicated, and heated at 37° C. prior to resolving the proteins on SDS-PAGE gels. The proteins are transferred to nitrocellulose membranes and the membranes are probed with the designated antibodies. Tubulin is used to indicate loading controls.
A set of CFTR fragments with domain boundaries that permitted them to accumulate in unstable or stable states are expressed in HEK293 cells, and the effect of 5 μM lumacaftor on the accumulation of different fragments is determined. As a point of reference, the impact of the proteasome inhibitor bortezomib on CFTR fragment accumulation is also measured.
Cells are treated for 4 hours with bortezomib or 18 hours at 37° C. with lumacaftor. The amount of CFTR fragment accumulation is determined by immunoblot.
To identify regions of CFTR required for lumacaftor activity, different length CFTR fragments were expressed in HEK-293 cells and their steady-state accumulation and half-life were quantified in biochemical assays (FIGS. 1A and B; FIG. 2). Since CFTR folding initiates cotranslationally and channel assembly is completed post-translationally (Higgins, 1992, Annual Review of Cell Biology, 8:67-113), CFTR fragments which may resemble folding intermediates have been used to study CFTR biogenesis. The underlying rationale is that differences in accumulation or half-life between different length CFTR fragments are believed to reflect differences in the stability of the protein conformation and resistance to endoplasmic reticulum associated degradation (ERAD). […] Differences in accumulation and halflife of CFTR fragments have been used successfully to identify Hsp70- and calnexin-dependent steps in CFTR folding and degradation pathways (Farinha and Amaral, 2005, Mol Cell Biol, 25:5242-52; Lukacs and Verkman, […], EMBO Journal, 13:6076-86; Meacham et al., 1999, EMBO Journal, 18:1492-1505; Okiyoneda et al., 2004, Mol Biol Cell, 15:563-574), to identify defective interactions between MSD1, NBD1 and MSD2 as an underlying cause of premature degradation of ΔF508-CFTR (Cui et al., 2007, J Mol Biol, 365:981-994; Du and Lukacs, 2009, Molecular Biology of the Cell, 20:1903-1915; Younger et al., 2006, Cell, 126:571-582), and to identify MSD2 as the site of action of the CFTR corrector, Corr-4a.

[5] = compared to CFTR^430 and CFTR^653

T1 sequence (P13569 whole entry E92K): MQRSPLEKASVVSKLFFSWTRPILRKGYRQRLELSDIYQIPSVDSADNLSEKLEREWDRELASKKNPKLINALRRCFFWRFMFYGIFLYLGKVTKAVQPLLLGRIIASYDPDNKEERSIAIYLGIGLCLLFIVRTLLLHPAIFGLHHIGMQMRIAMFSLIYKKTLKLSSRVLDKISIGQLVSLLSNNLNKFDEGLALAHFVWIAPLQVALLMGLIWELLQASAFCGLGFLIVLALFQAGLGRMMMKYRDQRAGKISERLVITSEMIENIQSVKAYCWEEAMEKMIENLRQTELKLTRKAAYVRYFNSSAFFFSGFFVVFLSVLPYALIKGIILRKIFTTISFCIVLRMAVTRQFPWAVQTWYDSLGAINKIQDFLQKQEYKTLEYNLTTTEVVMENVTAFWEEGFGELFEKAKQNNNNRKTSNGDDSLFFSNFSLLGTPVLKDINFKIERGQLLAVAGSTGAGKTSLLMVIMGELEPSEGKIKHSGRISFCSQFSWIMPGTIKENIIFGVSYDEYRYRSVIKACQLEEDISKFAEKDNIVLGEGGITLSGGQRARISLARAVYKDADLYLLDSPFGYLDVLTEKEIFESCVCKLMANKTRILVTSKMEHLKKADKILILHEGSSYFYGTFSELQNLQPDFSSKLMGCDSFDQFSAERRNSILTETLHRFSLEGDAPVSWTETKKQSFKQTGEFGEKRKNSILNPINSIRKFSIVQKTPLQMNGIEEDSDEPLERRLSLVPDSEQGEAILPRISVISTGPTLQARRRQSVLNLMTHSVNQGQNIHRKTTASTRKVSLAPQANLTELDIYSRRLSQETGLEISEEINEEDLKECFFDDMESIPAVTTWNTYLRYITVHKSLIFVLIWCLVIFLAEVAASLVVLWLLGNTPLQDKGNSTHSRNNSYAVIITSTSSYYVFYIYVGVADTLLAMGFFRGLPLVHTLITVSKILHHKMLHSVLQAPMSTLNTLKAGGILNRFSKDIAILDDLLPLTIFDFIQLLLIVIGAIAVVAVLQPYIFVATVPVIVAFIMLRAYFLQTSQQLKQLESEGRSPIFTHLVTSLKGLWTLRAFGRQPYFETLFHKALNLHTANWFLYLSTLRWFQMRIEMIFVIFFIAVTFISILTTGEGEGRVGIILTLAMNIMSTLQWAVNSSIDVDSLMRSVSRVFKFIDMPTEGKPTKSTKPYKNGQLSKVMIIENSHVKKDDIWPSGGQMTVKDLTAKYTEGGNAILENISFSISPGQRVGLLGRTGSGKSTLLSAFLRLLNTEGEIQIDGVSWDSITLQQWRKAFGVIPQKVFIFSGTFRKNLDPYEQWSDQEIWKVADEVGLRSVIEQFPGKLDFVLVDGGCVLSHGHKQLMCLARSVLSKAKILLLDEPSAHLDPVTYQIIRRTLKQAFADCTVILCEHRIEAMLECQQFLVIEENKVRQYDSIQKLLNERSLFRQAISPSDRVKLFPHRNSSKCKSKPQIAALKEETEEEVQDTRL
Chain of ΔF508-CFTR (P13569 with tags, fused parts or gaps DEL508-508): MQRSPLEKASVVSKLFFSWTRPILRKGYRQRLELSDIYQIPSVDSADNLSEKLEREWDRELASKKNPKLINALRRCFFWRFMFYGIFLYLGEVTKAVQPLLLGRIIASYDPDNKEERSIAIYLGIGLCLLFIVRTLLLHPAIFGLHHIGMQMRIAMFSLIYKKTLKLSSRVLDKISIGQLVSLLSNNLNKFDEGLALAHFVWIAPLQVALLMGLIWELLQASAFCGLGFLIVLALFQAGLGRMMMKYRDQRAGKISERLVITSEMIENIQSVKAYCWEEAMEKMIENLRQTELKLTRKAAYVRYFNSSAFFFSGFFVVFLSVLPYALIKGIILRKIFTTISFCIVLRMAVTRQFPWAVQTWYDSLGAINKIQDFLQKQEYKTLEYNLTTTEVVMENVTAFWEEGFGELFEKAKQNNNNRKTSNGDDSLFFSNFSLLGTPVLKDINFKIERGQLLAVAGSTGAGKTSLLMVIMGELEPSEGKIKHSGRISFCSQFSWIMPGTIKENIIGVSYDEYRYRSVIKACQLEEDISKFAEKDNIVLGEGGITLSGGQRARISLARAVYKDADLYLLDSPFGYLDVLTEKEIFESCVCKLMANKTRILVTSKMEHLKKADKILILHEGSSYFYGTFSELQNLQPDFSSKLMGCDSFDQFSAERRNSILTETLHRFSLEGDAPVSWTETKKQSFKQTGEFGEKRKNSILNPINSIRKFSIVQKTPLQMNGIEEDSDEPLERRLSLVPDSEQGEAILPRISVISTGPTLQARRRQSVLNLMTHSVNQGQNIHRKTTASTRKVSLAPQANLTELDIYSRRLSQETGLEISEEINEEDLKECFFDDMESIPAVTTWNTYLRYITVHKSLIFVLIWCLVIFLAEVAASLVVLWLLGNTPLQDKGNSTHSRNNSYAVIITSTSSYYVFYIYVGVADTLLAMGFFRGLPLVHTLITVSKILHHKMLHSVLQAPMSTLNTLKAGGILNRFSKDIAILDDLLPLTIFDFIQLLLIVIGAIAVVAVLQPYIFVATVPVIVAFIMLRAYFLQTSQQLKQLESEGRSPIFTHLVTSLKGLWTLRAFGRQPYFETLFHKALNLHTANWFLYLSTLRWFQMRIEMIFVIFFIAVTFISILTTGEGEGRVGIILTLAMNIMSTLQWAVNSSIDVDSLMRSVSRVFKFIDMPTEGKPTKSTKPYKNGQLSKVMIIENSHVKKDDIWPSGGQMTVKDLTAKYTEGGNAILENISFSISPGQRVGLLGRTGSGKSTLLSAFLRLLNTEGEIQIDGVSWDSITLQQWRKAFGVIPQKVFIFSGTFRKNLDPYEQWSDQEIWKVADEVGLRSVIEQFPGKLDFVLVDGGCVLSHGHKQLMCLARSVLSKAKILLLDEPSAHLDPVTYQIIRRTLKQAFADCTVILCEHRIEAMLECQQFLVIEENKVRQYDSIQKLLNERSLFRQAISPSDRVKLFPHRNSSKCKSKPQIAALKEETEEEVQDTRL
Chain of V232D-CFTR (P13569 whole entry V232D, the tested form may be a part): as the sequence (P13569 whole entry E92K) above, with K92E, V232D counted along it

With `COc1ccc(Cl)cc1Nc1nc(-c2sc(NC(=O)c3ccccc3)nc2C)cs1` [Corr-4a] as the compound, how does the ΔF508-CFTR function [1] read?
Its ΔF508-CFTR function is “partially restored”.

And the “restoration of E92K-CFTR function” value [2]?
Its value is “could not restore”.

What about the “V232D-CFTR biogenesis and function” value [3] of the same compound?
The value was “to normal levels”.

Which results are given for `CC(C)C[C@H](NC(=O)[C@H](Cc1ccccc1)NC(=O)c1cnccn1)B(O)O` [bortezomib]?
increase in accumulation of CFTR^370 ([4]; 4 hours): 10 fold; increase in accumulation of CFTR^530 ([4]; 4 hours): 10 fold; sensitivity of CFTR^430 accumulation to proteasome inhibition ([4]; 4 hours): relatively insensitive; sensitivity of CFTR^653 accumulation to proteasome inhibition ([4]; 4 hours): relatively insensitive; effect of proteasome inhibition on CFTR^370 [4, 5]: more susceptible; also recorded: able to increase the stability; effect of proteasome inhibition on CFTR^530 [4, 5]: more susceptible
